Broadly, the Kd is the concentration at which binding is half-saturated.

Positions count from the first letter of the chain named. Bounds are passed on as bounds.

In PMC4912453 (Nature chemical biology, 2016) one finds Kd data, which are given here for one compound.

Holding throughout (assay type): binding
The target of experiment [1] is T1, DNA polymerase α catalytic subunit (POLA1) (Homo sapiens, UniProt P09884).
T1 sequence (P09884 335-1257): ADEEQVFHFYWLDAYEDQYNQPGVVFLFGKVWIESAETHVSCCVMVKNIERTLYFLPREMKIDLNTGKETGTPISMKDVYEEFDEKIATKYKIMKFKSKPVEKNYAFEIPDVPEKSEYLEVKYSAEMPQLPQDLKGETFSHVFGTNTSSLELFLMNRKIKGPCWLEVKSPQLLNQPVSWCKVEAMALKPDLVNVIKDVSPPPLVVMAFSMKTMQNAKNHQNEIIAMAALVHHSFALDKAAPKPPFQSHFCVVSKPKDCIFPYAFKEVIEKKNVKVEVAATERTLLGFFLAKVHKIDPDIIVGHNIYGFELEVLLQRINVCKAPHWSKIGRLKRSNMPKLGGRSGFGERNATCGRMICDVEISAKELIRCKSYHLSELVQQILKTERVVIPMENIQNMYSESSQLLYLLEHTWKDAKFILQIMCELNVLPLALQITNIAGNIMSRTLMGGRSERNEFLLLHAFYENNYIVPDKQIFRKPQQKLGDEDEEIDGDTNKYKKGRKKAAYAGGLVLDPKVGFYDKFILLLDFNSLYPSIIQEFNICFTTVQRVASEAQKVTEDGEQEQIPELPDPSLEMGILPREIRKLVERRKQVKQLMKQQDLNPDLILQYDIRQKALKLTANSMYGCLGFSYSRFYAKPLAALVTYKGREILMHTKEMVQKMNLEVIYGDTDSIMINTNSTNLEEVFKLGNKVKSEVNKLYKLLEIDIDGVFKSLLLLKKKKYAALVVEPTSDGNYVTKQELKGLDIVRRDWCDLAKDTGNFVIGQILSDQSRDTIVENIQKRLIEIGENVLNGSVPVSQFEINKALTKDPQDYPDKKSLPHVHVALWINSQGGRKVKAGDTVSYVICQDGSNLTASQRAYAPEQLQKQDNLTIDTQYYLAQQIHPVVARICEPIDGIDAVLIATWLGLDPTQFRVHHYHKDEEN
In words: CD437 fluorescence intensity enhancement and anisotropy titration.

Experiment [2] deals with T2, DNA polymerase α catalytic subunit (POLA1) (Homo sapiens, UniProt P09884, L764S).
T2 sequence (P09884 335-1257 L764S): T1 sequence (P09884 335-1257) with L430S
In words: CD437 fluorescence intensity enhancement titration.

The target in experiment [3] is T3, DNA polymerase α catalytic subunit (POLA1) (Homo sapiens, UniProt P09884, L700S).
T3 sequence (P09884 335-1257 L700S): T1 sequence (P09884 335-1257) with L366S
As to the kind of experiment: CD437 fluorescence intensity enhancement titration.

As for `O=C(O)c1ccc2cc(-c3ccc(O)c(C45CC6CC(CC(C6)C4)C5)c3)ccc2c1` [CD437, 6-[3-(1-adamantyl)-4-hydroxyphenyl]-2-naphthalene carboxylic acid], the results for the Kd in experiment [1], in experiment [2] and in experiment [3] were 67 ± 22 nM, 94 ± 18 nM and below 5 nM, respectively.
